Measured values reported in PubChem BioAssay (NCI).
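Grown in 96-well plates, cells were treated for 48 hours with each compound at five concentrations. Insufficient inhibition: endpoint recorded as highest concentration tested. Here, GI50 denotes the concentration required for 50% inhibition of growth. TGI: concentration producing complete growth inhibition.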

Assays:
Experiment in all cases: NCI tumour cell line growth inhibition, 48 h
[1] = tested on: ACHN renal
[2] = tested on: 786-0 renal
[3] = tested on: SK-MEL-2 melanoma
[4] = tested on: HCC-2998 colon
[5] = tested on: OVCAR-4 ovarian
[6] = tested on: HCT-116 colon
[7] = tested on: OVCAR-8 ovarian
[8] = tested on: SNB-19 CNS
[9] = tested on: NCI-H460 lung
[10] = tested on: HOP-62 NSCLC
[11] = tested on: IGROV1 ovarian
[12] = tested on: COLO 205 colon
[13] = tested on: HOP-92 NSCLC
[14] = tested on: SN12C renal
[15] = tested on: HL-60(TB) leukemia
[16] = tested on: A549 NSCLC
[17] = tested on: HCT-15 colon
[18] = tested on: U251 CNS
[19] = tested on: SW-620 colon
[20] = tested on: DU-145 prostate
[21] = tested on: TK-10 renal
[22] = tested on: SR leukemia
[23] = tested on: UO-31 renal
[24] = tested on: MDA-MB-435
[25] = tested on: HS 578T breast
[26] = tested on: KM12 colon
[27] = tested on: MOLT-4 leukemia
[28] = tested on: NCI-H226 lung
[29] = tested on: CAKI-1 renal
[30] = tested on: MDA-MB-468 breast
[31] = tested on: OVCAR-3 ovarian
[32] = tested on: SF-539 CNS
[33] = tested on: MDA-MB-231 breast
[34] = tested on: T-47D breast
[35] = tested on: SK-OV-3 ovarian
[36] = tested on: OVCAR-5 ovarian
[37] = tested on: UACC-257 melanoma
[38] = tested on: MALME-3M melanoma
[39] = tested on: BT-549 breast
[40] = tested on: UACC-62 melanoma
[41] = tested on: SF-268 CNS
[42] = tested on: PC-3 prostate
[43] = tested on: A498 renal
[44] = tested on: CCRF-CEM leukemia
[45] = tested on: K-562 leukemia
[46] = tested on: NCI-H522 lung
[47] = tested on: RPMI-8226 leukemia
[48] = tested on: SF-295 CNS
[49] = tested on: SNB-75 CNS
[50] = tested on: MCF7 breast
[51] = tested on: HT29 colon
[52] = tested on: RXF 393 renal
[53] = tested on: EKVX NSCLC
[54] = tested on: SK-MEL-28 melanoma
[55] = tested on: NCI-H23 lung
[56] = tested on: NCI/ADR-RES ovarian
[57] = tested on: LOX IMVI melanoma
[58] = tested on: SK-MEL-5 melanoma
[59] = tested on: M14 melanoma

Compound: COc1ccc(/C=C/c2nc3ccccc3n3c(-c4cccc([N+](=O)[O-])c4)nnc23)cc1
- GI50 [1]: 1.37 µM
- TGI [1]: 2.66 µM
- GI50 [2]: 1.45 µM
- TGI [2]: 2.76 µM
- GI50 [3]: 2.63 µM
- TGI [3]: 9.09 µM
- GI50 [4]: 2.57 µM
- TGI [4]: 11.3 µM
- GI50 [5]: 1.68 µM
- TGI [5]: 5.32 µM
- GI50 [6]: 1.08 µM
- TGI [6]: 2.27 µM
- GI50 [7]: 1.75 µM
- TGI [7]: 4.8 µM
- GI50 [8]: 5.84 µM
- TGI [8]: 18.8 µM
- GI50 [9]: 1.69 µM
- TGI [9]: 4.26 µM
- GI50 [10]: 5.47 µM
- TGI [10]: 18.2 µM
- GI50 [11]: 1.89 µM
- TGI [11]: 3.77 µM
- GI50 [12]: 1.76 µM
- TGI [12]: 3.66 µM
- GI50 [13]: 1.91 µM
- TGI [13]: 4.93 µM
- GI50 [14]: 1.14 µM
- TGI [14]: 2.36 µM
- GI50 [15]: 1.62 µM
- TGI [15]: 10.9 µM
- GI50 [16]: 2.65 µM
- TGI [16]: 11 µM
- GI50 [17]: 0.948 µM
- TGI [17]: 2.25 µM
- GI50 [18]: 1.52 µM
- TGI [18]: 3.3 µM
- GI50 [19]: 0.631 µM
- TGI [19]: 1.87 µM
- GI50 [20]: 1.61 µM
- TGI [20]: 4.29 µM
- GI50 [21]: 2.87 µM
- TGI [21]: 9.9 µM
- GI50 [22]: 0.247 µM
- TGI [22]: 1.36 µM
- GI50 [23]: 2 µM
- TGI [23]: 8.8 µM
- GI50 [24]: 1.9 µM
- TGI [24]: 5.65 µM
- GI50 [25]: 3.99 µM
- TGI [25]: 20.7 µM
- GI50 [26]: 2.62 µM
- TGI [26]: 10.8 µM
- GI50 [27]: 1.21 µM
- TGI [27]: 4.1 µM
- GI50 [28]: 0.626 µM
- TGI [28]: 2.49 µM
- GI50 [29]: 2.47 µM
- TGI [29]: 10.4 µM
- GI50 [30]: 1.13 µM
- TGI [30]: 2.85 µM
- GI50 [31]: 1.27 µM
- TGI [31]: 2.61 µM
- GI50 [32]: 1.44 µM
- TGI [32]: 2.75 µM
- GI50 [33]: 1.8 µM
- TGI [33]: 4.55 µM
- GI50 [34]: 3.76 µM
- TGI [34]: 16.1 µM
- GI50 [35]: 5.22 µM
- TGI [35]: 17.6 µM
- GI50 [36]: 1.77 µM
- TGI [36]: 3.61 µM
- GI50 [37]: 3.65 µM
- TGI [37]: 15 µM
- GI50 [38]: 0.581 µM
- TGI [38]: 1.98 µM
- GI50 [39]: 1.38 µM
- TGI [39]: 2.92 µM
- GI50 [40]: 1.7 µM
- TGI [40]: 4.3 µM
- GI50 [41]: 2.77 µM
- TGI [41]: 10.2 µM
- GI50 [42]: 3.01 µM
- TGI [42]: 14.5 µM
- GI50 [43]: 12.4 µM
- TGI [43]: 28.1 µM
- GI50 [44]: 0.312 µM
- TGI [44]: 1.15 µM
- GI50 [45]: 0.307 µM
- TGI [45]: 2.14 µM
- GI50 [46]: 0.12 µM
- TGI [46]: 0.258 µM
- GI50 [47]: 1.44 µM
- TGI [47]: 4.03 µM
- GI50 [48]: 9.61 µM
- TGI [48]: 21.4 µM
- GI50 [49]: 4.12 µM
- TGI [49]: 15.9 µM
- GI50 [50]: 1.83 µM
- TGI [50]: 10.1 µM
- GI50 [51]: 1.12 µM
- TGI [51]: 2.32 µM
- GI50 [52]: 1.24 µM
- TGI [52]: 2.55 µM
- GI50 [53]: 3.86 µM
- TGI [53]: 14.8 µM
- GI50 [54]: 2.19 µM
- TGI [54]: 4.94 µM
- GI50 [55]: 1.51 µM
- TGI [55]: 3.01 µM
- GI50 [56]: 2.1 µM
- TGI [56]: 6.93 µM
- GI50 [57]: 0.148 µM
- TGI [57]: 0.289 µM
- GI50 [58]: 2.06 µM
- TGI [58]: 5.38 µM
- GI50 [59]: 0.76 µM
- TGI [59]: 2.17 µM
